Source: patent US9580390B2, “Indazole compounds as kinase inhibitors and method of treating cancer with same” (University Health Network, priority 2011, dated 2017)

Tests used:
human TTK = target: T1, human TTK (Homo sapiens, UniProt P33981); test: TTK inhibition assay (indirect ELISA); format: biochemical; settings: read-out: TTK IC50 Range
T1 construct: amino terminal GST fusion of full length human TTK; purchased Invitrogen
T1 sequence (P33981 1-857): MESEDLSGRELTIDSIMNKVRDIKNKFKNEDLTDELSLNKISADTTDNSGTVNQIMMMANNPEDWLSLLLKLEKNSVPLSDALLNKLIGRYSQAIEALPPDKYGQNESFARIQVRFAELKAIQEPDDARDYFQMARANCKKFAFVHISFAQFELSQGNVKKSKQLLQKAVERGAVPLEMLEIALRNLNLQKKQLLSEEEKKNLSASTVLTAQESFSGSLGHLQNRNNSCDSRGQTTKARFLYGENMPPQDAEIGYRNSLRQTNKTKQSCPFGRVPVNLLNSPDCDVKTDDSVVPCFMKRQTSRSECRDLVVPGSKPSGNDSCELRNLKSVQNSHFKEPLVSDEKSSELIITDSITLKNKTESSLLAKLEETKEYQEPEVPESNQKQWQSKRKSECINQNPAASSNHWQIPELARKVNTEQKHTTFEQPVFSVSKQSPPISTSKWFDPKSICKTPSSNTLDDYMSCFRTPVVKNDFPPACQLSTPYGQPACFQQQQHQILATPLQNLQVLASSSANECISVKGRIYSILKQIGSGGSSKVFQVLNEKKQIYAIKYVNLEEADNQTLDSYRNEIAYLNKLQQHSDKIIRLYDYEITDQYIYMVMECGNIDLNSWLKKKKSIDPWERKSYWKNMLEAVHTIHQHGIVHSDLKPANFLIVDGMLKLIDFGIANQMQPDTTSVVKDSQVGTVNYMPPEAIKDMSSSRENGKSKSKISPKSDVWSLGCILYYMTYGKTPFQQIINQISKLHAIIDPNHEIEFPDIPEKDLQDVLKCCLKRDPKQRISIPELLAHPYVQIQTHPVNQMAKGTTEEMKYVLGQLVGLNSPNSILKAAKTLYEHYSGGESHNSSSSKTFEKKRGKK

[1] = system: ovarian cancer cells (PA-1); test: Cancer cell line growth inhibition (SRB assay); format: cell-based; settings: Homo sapiens, PA-1; read-out: Cancer Cell Line GI50 Range PA-1
human PLK4 = target: T2, human PLK4 (Homo sapiens, UniProt O00444); test: PLK4 inhibition assay (indirect ELISA); format: biochemical; settings: 15 μM ATP
T2 construct: amino terminal GST fusion of residues 1-391 of human PLK4; made in house; host or cells: E. coli
T2 sequence (O00444 1-391): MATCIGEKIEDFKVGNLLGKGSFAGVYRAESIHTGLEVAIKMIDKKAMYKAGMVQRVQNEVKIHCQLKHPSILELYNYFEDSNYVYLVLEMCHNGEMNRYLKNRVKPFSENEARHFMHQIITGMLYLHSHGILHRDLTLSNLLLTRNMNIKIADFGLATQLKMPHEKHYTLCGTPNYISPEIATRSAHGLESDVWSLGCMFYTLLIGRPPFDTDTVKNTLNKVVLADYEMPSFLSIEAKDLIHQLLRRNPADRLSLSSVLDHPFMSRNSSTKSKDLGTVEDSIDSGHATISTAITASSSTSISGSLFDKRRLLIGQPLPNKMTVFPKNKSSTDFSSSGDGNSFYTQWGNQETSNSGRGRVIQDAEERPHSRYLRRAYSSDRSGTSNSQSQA
Summary of the method: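 Dephosphorylated GST-PLK4 (residues 1-391, E. coli; 4 nM) was preincubated 15 min with compound, then reacted 30 min with 15 μM ATP in HEPES pH 7.4, MgCl2, Brij 35 on MBP-coated plates. Phospho-MBP was detected by antibody/HRP ELISA at 450 nm; IC50 from 10-point titration by 4-parameter logistic fit, or single 10 μM % inhibition.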

Breast cancer cells = test: Cancer cell line growth inhibition (SRB assay); format: cell-based; settings: Homo sapiens; MDA-MB-468; read-out: Cancer Cell Line GI50 Range MDA-MB-468
[2] = system: colon cancer cells (HCT116); test: Cancer cell line growth inhibition (SRB assay); format: cell-based; settings: Homo sapiens, HCT-116; read-out: Cancer Cell Line GI50 Range HCT116
cKit (V560G) = target: T3, cKit (V560G) (Homo sapiens, UniProt P10721, V560G); test: Panel of 270 human kinases (Millipore); format: biochemical
T3 construct: purchased Millipore Corporation
Procedure: (§1) The inhibitory activity of selected compounds of the invention (A335, A405, A410, A261, A300 and A363) was evaluated against a panel of 270 different human kinase enzymes by Millipore Corporation. The % Inhibition was determined by the formula: % Inhibition=100×(1−(experimental value−background value)/(high activity control−background value)).

JNK3 = target: T4, JNK3 (Homo sapiens, UniProt P53779); test: Panel of 270 human kinases (Millipore); format: biochemical
T4 construct: purchased Millipore Corporation
Procedure: as §1

MELK = target: T5, MELK (Homo sapiens, UniProt Q14680); test: Panel of 270 human kinases (Millipore); format: biochemical
T5 construct: purchased Millipore Corporation
Procedure: as §1

T5 sequence (Q14680 whole entry): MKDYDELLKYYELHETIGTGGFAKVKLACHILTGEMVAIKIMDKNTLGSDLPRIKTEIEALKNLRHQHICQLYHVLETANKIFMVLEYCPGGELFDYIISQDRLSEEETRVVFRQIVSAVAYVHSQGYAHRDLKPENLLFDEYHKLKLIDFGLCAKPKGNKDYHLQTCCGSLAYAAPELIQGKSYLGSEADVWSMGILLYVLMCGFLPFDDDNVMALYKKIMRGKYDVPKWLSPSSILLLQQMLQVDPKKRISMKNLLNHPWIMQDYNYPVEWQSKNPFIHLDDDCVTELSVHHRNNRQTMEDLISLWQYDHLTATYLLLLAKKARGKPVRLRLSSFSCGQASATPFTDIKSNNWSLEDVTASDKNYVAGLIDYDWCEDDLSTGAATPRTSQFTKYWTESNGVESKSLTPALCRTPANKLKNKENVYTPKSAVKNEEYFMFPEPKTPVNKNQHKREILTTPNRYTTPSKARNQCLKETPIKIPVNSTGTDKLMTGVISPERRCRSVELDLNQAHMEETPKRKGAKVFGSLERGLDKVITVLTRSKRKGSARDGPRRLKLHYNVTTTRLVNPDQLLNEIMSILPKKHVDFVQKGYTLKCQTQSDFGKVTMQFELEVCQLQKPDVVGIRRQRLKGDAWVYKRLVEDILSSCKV
T3 sequence (P10721 26-976 V560G): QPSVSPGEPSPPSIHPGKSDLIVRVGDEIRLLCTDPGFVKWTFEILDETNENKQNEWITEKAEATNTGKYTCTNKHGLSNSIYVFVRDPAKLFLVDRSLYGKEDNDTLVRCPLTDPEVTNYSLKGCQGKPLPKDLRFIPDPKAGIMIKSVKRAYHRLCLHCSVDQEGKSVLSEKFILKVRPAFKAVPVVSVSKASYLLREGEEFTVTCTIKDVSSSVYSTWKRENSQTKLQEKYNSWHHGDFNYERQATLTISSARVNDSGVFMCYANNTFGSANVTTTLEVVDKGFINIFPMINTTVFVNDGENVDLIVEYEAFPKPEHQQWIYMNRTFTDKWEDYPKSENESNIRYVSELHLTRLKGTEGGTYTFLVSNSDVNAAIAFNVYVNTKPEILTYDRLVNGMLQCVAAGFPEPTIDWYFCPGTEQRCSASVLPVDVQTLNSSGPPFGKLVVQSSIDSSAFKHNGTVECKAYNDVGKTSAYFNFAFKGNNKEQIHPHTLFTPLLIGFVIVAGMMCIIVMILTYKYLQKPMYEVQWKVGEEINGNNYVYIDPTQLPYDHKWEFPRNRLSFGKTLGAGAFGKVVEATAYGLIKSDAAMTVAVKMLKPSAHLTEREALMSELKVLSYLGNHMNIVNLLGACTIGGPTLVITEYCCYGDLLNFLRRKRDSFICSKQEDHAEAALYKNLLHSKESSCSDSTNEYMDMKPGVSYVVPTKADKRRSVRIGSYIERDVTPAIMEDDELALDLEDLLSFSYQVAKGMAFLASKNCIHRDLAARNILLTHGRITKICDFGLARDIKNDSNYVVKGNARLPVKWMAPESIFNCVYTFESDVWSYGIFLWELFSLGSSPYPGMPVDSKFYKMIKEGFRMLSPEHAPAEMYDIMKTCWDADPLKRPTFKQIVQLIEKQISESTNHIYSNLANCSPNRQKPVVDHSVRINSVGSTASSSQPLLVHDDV
T4 sequence (P53779 whole entry): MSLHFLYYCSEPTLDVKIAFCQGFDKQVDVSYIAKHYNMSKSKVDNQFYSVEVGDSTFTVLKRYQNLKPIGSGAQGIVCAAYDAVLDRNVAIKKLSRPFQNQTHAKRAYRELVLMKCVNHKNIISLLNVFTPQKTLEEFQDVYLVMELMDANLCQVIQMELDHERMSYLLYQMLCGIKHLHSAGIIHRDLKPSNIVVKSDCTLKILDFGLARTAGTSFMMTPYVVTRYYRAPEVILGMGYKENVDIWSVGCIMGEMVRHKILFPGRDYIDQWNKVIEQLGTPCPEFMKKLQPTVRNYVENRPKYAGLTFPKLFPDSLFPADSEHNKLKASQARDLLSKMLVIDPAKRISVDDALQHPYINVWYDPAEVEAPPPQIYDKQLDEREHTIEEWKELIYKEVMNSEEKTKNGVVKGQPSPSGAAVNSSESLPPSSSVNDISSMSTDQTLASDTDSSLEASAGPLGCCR

| Compound | IC50 (human TTK) | GI50 [1] | IC50 (human PLK4) | GI50 (Breast cancer cells) | GI50 [2] | inhibition at 1 µM (cKit (V560G)) | inhibition at 1 µM (JNK3) | inhibition at 1 µM (MELK) |
| --- | --- | --- | --- | --- | --- | --- | --- | --- |
| CC(C)C[C@@H](NC(=O)c1ccc2[nH]nc(-c3ccc(N4CCN(C5COC5)CC4)cc3)c2c1)c1ccccc1Cl [Example A300, (R)-N-(1-(2-chlorophenyl)-3-methylbutyl)-3-(4-(4-(oxetan-3-yl)piperazin-1-yl)phenyl)-1H-indazole-5-carboxamide] | < 0.1 µM | < 0.1 µM | < 0.05 µM | < 0.1 µM | < 0.1 µM | 76% | 48% | 51% |
| CC(C)[C@H](NC(=O)c1ccc2[nH]nc(-c3ccc(OC4CC5CCC(C4)N5C4COC4)cc3)c2c1)c1ccccc1Cl (stereo partly shown) [Example A335] | < 0.1 µM | < 0.1 µM | < 0.05 µM | 0.1 to 0.5 µM | < 0.1 µM | 66% | 85% | 97% |
